Values quoted from earlier work in paper PMC6270209, “Synthesis, Antimycobacterial Activity and In Vitro Cytotoxicity of 5-Chloro-N-phenylpyrazine-2-carboxamides” (Molecules, 2013).

Test system: M. tbc strains (PZA-sensitive, PZA-resistant)
Parameters: method as in PMID 9527809
Conditions: cited from earlier work

SMILES: NC(=O)c1cnc(Cl)cn1 [Compound 5-Cl-PZA, 5-chloropyrazine-2-carboxamide, reference compound]
- MIC for PZA-resistant strains (PZA-resistant strains): 8 to 64 µg/mL
- MIC for PZA-sensitive M. tbc strains (PZA-sensitive strains): 8 to 32 µg/mL
